Reference: patent US20230312473A1, “PROCESS FOR THE PREPARATION OF BIHETEROARYL COMPOUNDS AND CRYSTAL FORMS THEREOF” (Genentech, Inc., priority 2020, published 2023)
Where two headings read alike, the source gives them in different places.

Test: Solubility of compound 1 in the solvent under evaluation at 22° C. and 65° C. (crystallization study)
Assay type: physicochemical
Description: Crystalline compound 1 was evaluated. Crystallization study procedures were done based on the solubility of compound 1 in the solvent under evaluation as follows.
The results are presented below in Table 10 where: * refers to compound 1 prepared as described above; and ** refers to compound 1 prepared as described above and further incubated at 100% relative humidity at 22° C. for 17 days.

Nc1ncc(-c2cc(N3C[C@@H]4C[C@H]3CO4)nc(N3CCC(F)(F)C3)n2)cc1OC(F)F [Compound 1, 5-(6-((1S,4S)-2-oxa-5-azabicyclo[2.2.1]heptan-5-yl)-2-(3,3-difluoropyrrolidin-1-yl)pyrimidin-4-yl)-3-(difluoromethoxy)pyridin-2-amine]
solubility (2-methyl THF, 22 °C, organic solvent or mixture, thermodynamic from solid, solvent: 2-methyl THF, read-out: Solubility at 22° C.): < 50 mg/mL
solubility (2-methyl THF, 65 °C, organic solvent or mixture, solvent: 2-methyl THF, read-out: Solubility at 65° C.): > 50 mg/mL
solubility (5% water in ethanol, 22 °C, organic solvent or mixture, thermodynamic from solid, solvent: 5% water in ethanol, read-out: Solubility at 22° C.): < 50 mg/mL
solubility (5% water in ethanol, 65 °C, organic solvent or mixture, solvent: 5% water in ethanol, read-out: Solubility at 65° C.): < 50 mg/mL
solubility (5% water in isopropanol, 22 °C, organic solvent or mixture, thermodynamic from solid, solvent: 5% water in isopropanol, read-out: Solubility at 22° C.): < 50 mg/mL
solubility (5% water in isopropanol, 65 °C, organic solvent or mixture, solvent: 5% water in isopropanol, read-out: Solubility at 65° C.): < 50 mg/mL
solubility (5% water in methanol, 22 °C, organic solvent or mixture, thermodynamic from solid, solvent: 5% water in methanol, read-out: Solubility at 22° C.): < 50 mg/mL
solubility (5% water in methanol, 65 °C, organic solvent or mixture, solvent: 5% water in methanol, read-out: Solubility at 65° C.): < 50 mg/mL
solubility (5% water in propanol, 22 °C, organic solvent or mixture, thermodynamic from solid, solvent: 5% water in propanol, read-out: Solubility at 22° C.): < 50 mg/mL
solubility (5% water in propanol, 65 °C, organic solvent or mixture, solvent: 5% water in propanol, read-out: Solubility at 65° C.): < 50 mg/mL
solubility (15% water in THF, 22 °C, organic solvent or mixture, thermodynamic from solid, solvent: 15% water in THF, read-out: Solubility at 22° C.): > 50 mg/mL
solubility (15% water in acetone, 22 °C, organic solvent or mixture, thermodynamic from solid, solvent: 15% water in acetone, read-out: Solubility at 22° C.): < 50 mg/mL
solubility (15% water in acetone, 65 °C, organic solvent or mixture, thermodynamic from solid, solvent: 15% water in acetone, read-out: Solubility at 65° C.): > 50 mg/mL
solubility (15% water in ethanol, 22 °C, organic solvent or mixture, thermodynamic from solid, solvent: 15% water in ethanol, read-out: Solubility at 22° C.): < 50 mg/mL
solubility (15% water in ethanol, 65 °C, organic solvent or mixture, thermodynamic from solid, solvent: 15% water in ethanol, read-out: Solubility at 65° C.): < 50 mg/mL
solubility (15% water in isopropanol, 22 °C, organic solvent or mixture, thermodynamic from solid, solvent: 15% water in isopropanol, read-out: Solubility at 22° C.): < 50 mg/mL
solubility (15% water in isopropanol, 65 °C, organic solvent or mixture, thermodynamic from solid, solvent: 15% water in isopropanol, read-out: Solubility at 65° C.): < 50 mg/mL
solubility (15% water in methanol, 22 °C, organic solvent or mixture, thermodynamic from solid, solvent: 15% water in methanol, read-out: Solubility at 22° C.): < 50 mg/mL
solubility (15% water in methanol, 65 °C, organic solvent or mixture, solvent: 15% water in methanol, read-out: Solubility at 65° C.): < 50 mg/mL
solubility (15% water in propanol, 22 °C, organic solvent or mixture, thermodynamic from solid, solvent: 15% water in propanol, read-out: Solubility at 22° C.): < 50 mg/mL
solubility (15% water in propanol, 65 °C, organic solvent or mixture, solvent: 15% water in propanol, read-out: Solubility at 65° C.): < 50 mg/mL
solubility (20% water in acetonitrile, 22 °C, organic solvent or mixture, thermodynamic from solid, solvent: 20% water in acetonitrile, read-out: Solubility at 22° C.): < 50 mg/mL
solubility (20% water in acetonitrile, 65 °C, organic solvent or mixture, solvent: 20% water in acetonitrile, read-out: Solubility at 65° C.): > 50 mg/mL
solubility (50% water in acetonitrile, 22 °C, aqueous with cosolvent or surfactant or cyclodextrin, thermodynamic from solid, solvent: 50% water in acetonitrile, read-out: Solubility at 22° C.): < 50 mg/mL
solubility (50% water in acetonitrile, 65 °C, aqueous with cosolvent or surfactant or cyclodextrin, solvent: 50% water in acetonitrile, read-out: Solubility at 65° C.): < 50 mg/mL
solubility (50% water in ethanol, 22 °C, aqueous with cosolvent or surfactant or cyclodextrin, thermodynamic from solid, solvent: 50% water in ethanol, read-out: Solubility at 22° C.): < 50 mg/mL
solubility (50% water in ethanol, 65 °C, aqueous with cosolvent or surfactant or cyclodextrin, solvent: 50% water in ethanol, read-out: Solubility at 65° C.): < 50 mg/mL
solubility (50% water in isopropanol, 22 °C, aqueous with cosolvent or surfactant or cyclodextrin, thermodynamic from solid, solvent: 50% water in isopropanol, read-out: Solubility at 22° C.): < 50 mg/mL
solubility (50% water in isopropanol, 65 °C, aqueous with cosolvent or surfactant or cyclodextrin, solvent: 50% water in isopropanol, read-out: Solubility at 65° C.): < 50 mg/mL
solubility (50% water in methanol, 22 °C, aqueous with cosolvent or surfactant or cyclodextrin, thermodynamic from solid, solvent: 50% water in methanol, read-out: Solubility at 22° C.): < 50 mg/mL
solubility (50% water in methanol, 65 °C, aqueous with cosolvent or surfactant or cyclodextrin, solvent: 50% water in methanol, read-out: Solubility at 65° C.): < 50 mg/mL
solubility (50% water in propanol, 22 °C, aqueous with cosolvent or surfactant or cyclodextrin, thermodynamic from solid, solvent: 50% water in propanol, read-out: Solubility at 22° C.): < 50 mg/mL
solubility (50% water in propanol, 65 °C, aqueous with cosolvent or surfactant or cyclodextrin, solvent: 50% water in propanol, read-out: Solubility at 65° C.): < 50 mg/mL
solubility (80% water in acetonitrile, 22 °C, aqueous with cosolvent or surfactant or cyclodextrin, thermodynamic from solid, solvent: 80% water in acetonitrile, read-out: Solubility at 22° C.): < 50 mg/mL
solubility (80% water in acetonitrile, 65 °C, aqueous with cosolvent or surfactant or cyclodextrin, solvent: 80% water in acetonitrile, read-out: Solubility at 65° C.): < 50 mg/mL
solubility (Acetic acid, 22 °C, organic solvent or mixture, thermodynamic from solid, solvent: Acetic acid, read-out: Solubility at 22° C.): > 100 mg/mL
solubility (Acetonitrile, 22 °C, organic solvent or mixture, thermodynamic from solid, solvent: Acetonitrile, read-out: Solubility at 22° C.): < 50 mg/mL
solubility (Acetonitrile, 65 °C, organic solvent or mixture, solvent: Acetonitrile, read-out: Solubility at 65° C.): > 50 mg/mL
solubility (Chloroform, 22 °C, organic solvent or mixture, thermodynamic from solid, solvent: Chloroform, read-out: Solubility at 22° C.): < 50 mg/mL
solubility (Chloroform, 65 °C, organic solvent or mixture, solvent: Chloroform, read-out: Solubility at 65° C.): > 50 mg/mL
solubility (DMA, 22 °C, organic solvent or mixture, thermodynamic from solid, solvent: DMA, read-out: Solubility at 22° C.): > 200 mg/mL
solubility (DMF, 22 °C, organic solvent or mixture, thermodynamic from solid, solvent: DMF, read-out: Solubility at 22° C.): > 100 mg/mL
solubility (DMSO, 22 °C, organic solvent or mixture, thermodynamic from solid, solvent: DMSO, read-out: Solubility at 22° C.): > 100 mg/mL
solubility (Dichloromethane, 22 °C, organic solvent or mixture, thermodynamic from solid, solvent: Dichloromethane, read-out: Solubility at 22° C.): < 50 mg/mL
solubility (Dichloromethane, 65 °C, organic solvent or mixture, solvent: Dichloromethane, read-out: Solubility at 65° C.): > 50 mg/mL
solubility (Diisopropylamine, 22 °C, organic solvent or mixture, thermodynamic from solid, solvent: Diisopropylamine, read-out: Solubility at 22° C.): < 50 mg/mL
solubility (Diisopropylamine, 65 °C, organic solvent or mixture, solvent: Diisopropylamine, read-out: Solubility at 65° C.): < 50 mg/mL
solubility (Dimethyl carbonate, 22 °C, organic solvent or mixture, thermodynamic from solid, solvent: Dimethyl carbonate, read-out: Solubility at 22° C.): < 50 mg/mL
solubility (Dimethyl carbonate, 65 °C, organic solvent or mixture, solvent: Dimethyl carbonate, read-out: Solubility at 65° C.): > 50 mg/mL
solubility (Dioxane, 22 °C, organic solvent or mixture, thermodynamic from solid, solvent: Dioxane, read-out: Solubility at 22° C.): > 50 mg/mL
solubility (Ethyl acetate, 22 °C, organic solvent or mixture, thermodynamic from solid, solvent: Ethyl acetate, read-out: Solubility at 22° C.): < 50 mg/mL
solubility (Ethyl acetate, 65 °C, organic solvent or mixture, solvent: Ethyl acetate, read-out: Solubility at 65° C.): > 50 mg/mL
solubility (Isopropyl acetate, 22 °C, organic solvent or mixture, thermodynamic from solid, solvent: Isopropyl acetate, read-out: Solubility at 22° C.): < 50 mg/mL
solubility (Isopropyl acetate, 65 °C, organic solvent or mixture, solvent: Isopropyl acetate, read-out: Solubility at 65° C.): < 50 mg/mL
solubility (MEK, 22 °C, organic solvent or mixture, thermodynamic from solid, solvent: MEK, read-out: Solubility at 22° C.): < 50 mg/mL
solubility (MEK, 65 °C, organic solvent or mixture, thermodynamic from solid, solvent: MEK, read-out: Solubility at 65° C.): < 50 mg/mL
solubility (MIBK, 22 °C, organic solvent or mixture, thermodynamic from solid, solvent: MIBK, read-out: Solubility at 22° C.): < 50 mg/mL
solubility (MIBK, 65 °C, organic solvent or mixture, thermodynamic from solid, solvent: MIBK, read-out: Solubility at 65° C.): < 50 mg/mL
solubility (MTBE, 22 °C, organic solvent or mixture, thermodynamic from solid, solvent: MTBE, read-out: Solubility at 22° C.): < 50 mg/mL
solubility (MTBE, 65 °C, organic solvent or mixture, thermodynamic from solid, solvent: MTBE, read-out: Solubility at 65° C.): < 50 mg/mL
solubility (Methanol, 22 °C, organic solvent or mixture, thermodynamic from solid, solvent: Methanol, read-out: Solubility at 22° C.): < 50 mg/mL
solubility (Methanol, 65 °C, organic solvent or mixture, thermodynamic from solid, solvent: Methanol, read-out: Solubility at 65° C.): < 50 mg/mL
solubility (NMP, 22 °C, organic solvent or mixture, thermodynamic from solid, solvent: NMP, read-out: Solubility at 22° C.): > 200 mg/mL
solubility (THF, 22 °C, organic solvent or mixture, thermodynamic from solid, solvent: THF, read-out: Solubility at 22° C.): > 50 mg/mL
solubility (Toluene, 22 °C, organic solvent or mixture, thermodynamic from solid, solvent: Toluene, read-out: Solubility at 22° C.): < 50 mg/mL
solubility (Toluene, 65 °C, organic solvent or mixture, thermodynamic from solid, solvent: Toluene, read-out: Solubility at 65° C.): < 50 mg/mL
solubility (acetone, 22 °C, organic solvent or mixture, thermodynamic from solid, solvent: Acetone, read-out: Solubility at 22° C.): < 50 mg/mL
solubility (acetone, 65 °C, organic solvent or mixture, solvent: Acetone, read-out: Solubility at 65° C.): > 50 mg/mL
solubility (butanol, 22 °C, organic solvent or mixture, thermodynamic from solid, solvent: Butanol, read-out: Solubility at 22° C.): < 50 mg/mL
solubility (butanol, 65 °C, organic solvent or mixture, solvent: Butanol, read-out: Solubility at 65° C.): < 50 mg/mL
solubility (ethanol, 22 °C, organic solvent or mixture, thermodynamic from solid, solvent: Ethanol, read-out: Solubility at 22° C.): < 50 mg/mL
solubility (ethanol, 65 °C, organic solvent or mixture, solvent: Ethanol, read-out: Solubility at 65° C.): < 50 mg/mL
solubility (i-butanol, 22 °C, organic solvent or mixture, thermodynamic from solid, solvent: i-Butanol, read-out: Solubility at 22° C.): < 50 mg/mL
solubility (i-butanol, 65 °C, organic solvent or mixture, thermodynamic from solid, solvent: i-Butanol, read-out: Solubility at 65° C.): < 50 mg/mL
solubility (isopropanol, 22 °C, organic solvent or mixture, thermodynamic from solid, solvent: Isopropanol, read-out: Solubility at 22° C.): < 50 mg/mL
solubility (isopropanol, 65 °C, organic solvent or mixture, solvent: Isopropanol, read-out: Solubility at 65° C.): < 50 mg/mL
solubility (n-Heptane, 22 °C, organic solvent or mixture, thermodynamic from solid, solvent: n-Heptane, read-out: Solubility at 22° C.): < 50 mg/mL
solubility (n-Heptane, 65 °C, organic solvent or mixture, thermodynamic from solid, solvent: n-Heptane, read-out: Solubility at 65° C.): < 50 mg/mL
solubility (nitromethane, 22 °C, organic solvent or mixture, thermodynamic from solid, solvent: Nitromethane, read-out: Solubility at 22° C.): < 50 mg/mL
solubility (nitromethane, 65 °C, organic solvent or mixture, thermodynamic from solid, solvent: Nitromethane, read-out: Solubility at 65° C.): > 50 mg/mL
solubility (propanol, 22 °C, organic solvent or mixture, thermodynamic from solid, solvent: Propanol, read-out: Solubility at 22° C.): < 50 mg/mL
solubility (propanol, 65 °C, organic solvent or mixture, thermodynamic from solid, solvent: Propanol, read-out: Solubility at 65° C.): < 50 mg/mL
solubility (s-butanol, 22 °C, organic solvent or mixture, thermodynamic from solid, solvent: s-butanol, read-out: Solubility at 22° C.): < 50 mg/mL
solubility (s-butanol, 65 °C, organic solvent or mixture, thermodynamic from solid, solvent: s-butanol, read-out: Solubility at 65° C.): < 50 mg/mL
solubility (water, 22 °C, water, thermodynamic from solid, solvent: Water, read-out: Solubility at 22° C.): < 50 mg/mL
solubility (water, 65 °C, water, thermodynamic from solid, solvent: Water, read-out: Solubility at 65° C.): < 50 mg/mL
